Results: BindingDB's records for doi:10.1016/j.bmcl.2006.12.077 (Glaxosmithkline, 2007)

Biological target: Vascular endothelial growth factor receptor 2 (Homo sapiens, UniProt P35968)
Experiment: Homogeneous Time-Resolved Fluorescence (HTRF) Enzyme Assay
Settings: pH 7.5; 22 °C
Experimental: The assay uses purified GST-Tie-2 or GST-6x His-VEGFR2 interacting with biotinylated peptide substrates. HTRF is based on the proximity of europium cryptate (donor fluorophore)-labeled antiphosphotyrosine and streptavidin labeled with APC (allophycocyanin), which have been brought together by a binding reaction. When the two entities come into close proximity and upon excitation, energy transfer occurs and APC re-emits at 665 nm. The IC50 values for inhibitors were determined by a four-parameter sigmoidal curve fit.

Chain of Vascular endothelial growth factor receptor 2 (P35968 whole entry): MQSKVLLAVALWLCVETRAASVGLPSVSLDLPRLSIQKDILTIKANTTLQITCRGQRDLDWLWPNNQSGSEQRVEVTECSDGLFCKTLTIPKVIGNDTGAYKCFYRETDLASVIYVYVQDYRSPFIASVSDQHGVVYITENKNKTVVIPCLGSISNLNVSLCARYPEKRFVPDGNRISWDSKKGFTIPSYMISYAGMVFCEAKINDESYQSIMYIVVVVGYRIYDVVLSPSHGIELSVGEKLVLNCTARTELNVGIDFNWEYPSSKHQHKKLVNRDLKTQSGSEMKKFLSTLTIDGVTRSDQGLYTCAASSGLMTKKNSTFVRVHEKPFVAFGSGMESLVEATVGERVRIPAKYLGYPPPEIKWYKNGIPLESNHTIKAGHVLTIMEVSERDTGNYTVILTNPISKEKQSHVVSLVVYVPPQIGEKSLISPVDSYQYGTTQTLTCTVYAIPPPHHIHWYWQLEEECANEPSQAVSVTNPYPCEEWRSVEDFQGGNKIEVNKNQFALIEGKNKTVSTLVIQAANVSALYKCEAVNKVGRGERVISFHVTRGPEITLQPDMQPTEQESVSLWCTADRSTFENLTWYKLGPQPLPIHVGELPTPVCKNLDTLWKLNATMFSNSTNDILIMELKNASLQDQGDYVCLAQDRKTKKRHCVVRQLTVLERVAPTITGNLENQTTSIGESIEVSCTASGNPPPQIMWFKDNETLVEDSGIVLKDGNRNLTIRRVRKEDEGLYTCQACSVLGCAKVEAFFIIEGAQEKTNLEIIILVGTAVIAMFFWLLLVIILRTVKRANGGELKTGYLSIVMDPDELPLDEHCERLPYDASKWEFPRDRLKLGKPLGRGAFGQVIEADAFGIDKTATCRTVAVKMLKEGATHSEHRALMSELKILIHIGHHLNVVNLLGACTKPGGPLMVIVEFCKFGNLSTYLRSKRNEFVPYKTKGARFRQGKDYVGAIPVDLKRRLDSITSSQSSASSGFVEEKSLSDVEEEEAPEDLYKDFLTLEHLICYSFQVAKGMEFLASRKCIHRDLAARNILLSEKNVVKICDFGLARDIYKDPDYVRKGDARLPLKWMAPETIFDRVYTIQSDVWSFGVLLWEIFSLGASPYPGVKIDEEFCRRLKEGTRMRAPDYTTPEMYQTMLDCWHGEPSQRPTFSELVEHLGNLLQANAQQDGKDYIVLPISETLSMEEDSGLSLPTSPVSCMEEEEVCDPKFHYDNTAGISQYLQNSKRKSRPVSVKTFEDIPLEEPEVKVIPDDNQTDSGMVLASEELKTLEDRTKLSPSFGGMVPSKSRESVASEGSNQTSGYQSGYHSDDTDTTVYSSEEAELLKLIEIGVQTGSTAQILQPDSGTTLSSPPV

Row | Compound | IC50 [µM]
1 | Nc1ncnc2occ(-c3ccc(NC(=O)Nc4cc(C(F)(F)F)cc(C(F)(F)F)c4)cc3)c12 [3-(4-{4-aminofuro[2,3-d]pyrimidin-5-yl}phenyl)-1-[3,5-bis(trifluoromethyl)phenyl]urea] | 0.138
2 | COc1ccc(-c2oc3ncnc(N)c3c2-c2ccc(NC(=O)Nc3cc(C(F)(F)F)ccc3F)cc2)cc1 [3-{4-[4-amino-6-(4-methoxyphenyl)furo[2,3-d]pyrimidin-5-yl]phenyl}-1-[2-fluoro-5-(trifluoromethyl)phenyl]urea] | 0.0155
